For data set [1] the following is noted: pressure conditions typical for tablet preparation; cited from earlier work.
A further data set is described as follows: Solubility at pH 6.8. In kind it is physicochemical. The settings on record: pH 6.8, aqueous buffer. Here is the method:
The solubility of Forms I and II of idelalisib is very low. At pH 6.8 a solubility of about 70 mg/L was measured.

A short description of data set [2]: Thermal and humidity stability (XRPD analysis). It counts as physicochemical. Here is the method:
XRPD diffractograms were obtained with an X'Pert PRO diffractometer (PANalytical, Almelo, The Netherlands) equipped with a theta/theta coupled goniometer in transmission geometry, programmable XYZ stage with well plate holder, Cu K-alpha radiation source (wavelength 0.15418 nm) with a focusing mirror, a 0.5° divergence slit, a 0.02° soller slit collimator and a 0.5° anti-scattering slit on the incident beam side, a 2 mm anti-scattering slit, a 0.02° soller slit collimator, a Ni-filter and a solid state PIXcel detector on the diffracted beam side. The diffractogram was recorded at room temperature (25°C) at a tube voltage of 40 kV, tube current of 40 mA, applying a step size of 0.013° 2-Theta with 40 sec per step in the angular range of 2° to 40° 2-Theta. A typical precision of the 2-Theta values is in the range of ± 0.2° 2-Theta. Thus, a diffraction peak that appears for example at 9.4° 2-Theta can appear between 9.2 and 9.6° 2-theta on most X-ray diffractometers under standard conditions. 50 mg of pure amorphous idelalisib obtained as disclosed in Example 4b) were exposed to 98% relative humidity at 25°C for 5 days. […] 50 mg of pure amorphous idelalisib obtained as disclosed in Example 4b) were exposed to 75% relative humidity at 40°C for 5 days. […] 50 mg of pure amorphous idelalisib obtained as disclosed in Example 4b) were thermally stressed at 120°C and 50% relative humidity for 5 days in a sealed vial.

A short description of data set [3]: Solubility in water at 25°C. It counts as physicochemical.
The nature of data set [4]: Compression stability (KBr pellet die, XRPD analysis). Conditions: compressed for 4.5 days at 740 MPa. It counts as physicochemical. The method, then: XRPD diffractograms were obtained with an X'Pert PRO diffractometer (PANalytical, Almelo, The Netherlands) equipped with a theta/theta coupled goniometer in transmission geometry, programmable XYZ stage with well plate holder, Cu K-alpha radiation source (wavelength 0.15418 nm) with a focusing mirror, a 0.5° divergence slit, a 0.02° soller slit collimator and a 0.5° anti-scattering slit on the incident beam side, a 2 mm anti-scattering slit, a 0.02° soller slit collimator, a Ni-filter and a solid state PIXcel detector on the diffracted beam side. The diffractogram was recorded at room temperature (25°C) at a tube voltage of 40 kV, tube current of 40 mA, applying a step size of 0.013° 2-Theta with 40 sec per step in the angular range of 2° to 40° 2-Theta. A typical precision of the 2-Theta values is in the range of ± 0.2° 2-Theta. Thus, a diffraction peak that appears for example at 9.4° 2-Theta can appear between 9.2 and 9.6° 2-theta on most X-ray diffractometers under standard conditions. 50 mg of pure amorphous idelalisib obtained as disclosed in Example 4b) were added to a KBr pellet die and compressed for 4.5 days at 740 MPa.

≈ marks a conversion by molar mass, not a printed value.

One may read the solubility as the concentration that dissolves in the medium under given conditions. As for `CC[C@H](Nc1ncnc2[nH]cnc12)c1nc2cccc(F)c2c(=O)n1-c1ccccc1` [Form I, (S)-2-(1-(9H-purin-6-ylamino)propyl)-5-fluoro-3-phenylquinazolin-4(3H)-one], the “phase conversion under pressure” value in data set [1] is listed as “easily converts at least partially to Form II”. Further, the solubility in “Solubility at pH 6.8” is about 70 µg/mL (≈ 168 µM).

In the case of `CC[C@H](Nc1ncnc2[nH]cnc12)c1nc2cccc(F)c2c(=O)n1-c1ccccc1` [pure amorphous idelalisib, (S)-2-(1-(9H-purin-6-ylamino)propyl)-5-fluoro-3-phenylquinazolin-4(3H)-one], the “change of the amorphous form by XRPD after storage” value in data set [2] (75% relative humidity at 40°C for 5 days) is reported as “no change of the amorphous form”; in data set [2] (98% relative humidity at 25°C for 5 days), “no change of the amorphous form”; in data set [2] (120°C and 50% relative humidity for 5 days in a sealed vial) it was “no change of the amorphous form”. In addition, the solubility in data set [3] was about 415 µg/mL (≈ 999 µM). For the same compound, the “change in the amorphous phase by XRPD after compression” value in data set [4] is “no change in the amorphous phase”.

These data come from patent EP3048104A1, “AMORPHOUS AND CRYSTALLINE FORMS OF IDELALISIB AND PROCESS FOR FORMING THE SAME” (Sandoz AG, priority 2015, dated 2016).
